The results in this text go back to patent US4522944A, “Carboxamido-derivatives of 5H-1,3,4-thiadiazolo[3,2-a]pyrimidines, compositions and use” (priority 1982, dated 1985).

As usually defined, the LD50 is the dose expected to kill half of the subjects tested. As usually defined, the ED50 is the dose at which the effect has come halfway, by size or by number of responders.

Bounds are passed on as bounds.

Data set [1] in a line: approximate acute toxicity (LD50). Conditions: in vivo, po; mouse, per os, single administration of increasing doses, measured on the seventh day after treatment. The procedure:
In view of their high therapeutic index, the compounds of the invention can be used safely in medicine. For example, the approximate acute toxicity (LD50) of the compounds 2-(3-pyridyl)-5-oxo-5H-1,3,4-thiadiazolo[3,2-a]pyrimidine-6-N-(2-pyridyl)-carboxamide and 5-oxo-5H-1,3,4-thiadiazolo[3,2-a]pyrimidine-6-N-(2-pyridyl)-carboxamide in the mouse, determined by single administration of increasing doses and measured on the seventh day after treatment, is higher than 800 mg/kg per os. Analogous toxicity data have been found for other compounds of the invention.

The subject of data set [2] is edema formation in the hind paw. In words: Carrageenin induced oedema (edema formation in the hind paw of rats). The class given is in vivo. The settings on record: rat, oral administration; approximate ED50; read-out: Anti-inflammatory activity, Carrageenin induced oedema, ED50. From the text: (§1) The hydroxy protecting groups, for instance, may be removed by mild reaction conditions, e.g. acid hydrolysis.
(A) the edema formation in the hind paw of rats in response to a subplantar injection of carrageenin, according to the method of C. A. Winter et al. (J. Pharmac. Exp. Therap. 1963, 141, 369) and P. Lence (Arch. Int. Pharmacodyn., 1962, 136, 237), and
(§2) The following Tables I and II show, for example, the approximate ED50 values of the anti-inflammatory activity in the above mentioned tests, in the rat after oral administration, for a compound of this invention: 2-(3-pyridyl)-5-oxo-5H-1,3,4-thiadiazolo[3,2-a]pyrimidine-6-N-(2-pyridyl)-carboxamide (internal code FCE 22914): […]

Data set [3] has as its system Reversed Passive Arthus Reaction (RPAR) in rat paw. The experiment in a line: Reversed Passive Arthus Reaction (RPAR) in rat paw. Conditions: oral administration, approximate ED50, read-out: Anti-inflammatory activity, RPAR reaction, ED50. In kind it is in vivo.
Excerpt: as §1
(B) the Reversed Passive Arthus Reaction (RPAR) in rat paw, induced by the interaction of antigen and antibody resulting in the formation of precipitating immune complex, followed by fixation of complement and accumulation of polymorphonuclear leucocytes at a focal point (D. K. Gemmell, J. Cottney and A. J. Lewis, Agents and Actions 9/1 pag. 107, 1979).
as §2

The subject of data set [4] is mice. In words: phenylquinone test in mice (analgesic activity). Conditions: 50 mg/kg, oral administration. In kind it is in vivo. The protocol: The analgesic activity was assessed, for example, by means of the phenylquinone test in mice according to Siegmund: [Siegmund et al. Proc. Soc. Exper. Biol. Med. 95, 729 (1957)]. In this test the compound FCE 22914, for example, gives a 30% inhibition at 50 mg/kg after oral administration. It is known that certain thiadiazolo-pyrimidine derivatives are endowed with anti-allergic and anti-asthma activity, e.g. those described in Published Japan Patent Application No. J57 142989, but such compounds are devoid of any anti-inflammatory and/or analgesic activity.

In data set [1], `O=C(Nc1ccccn1)c1cnc2scnn2c1=O` [5-oxo-5H-1,3,4-thiadiazolo[3,2-a]pyrimidine-6-N-(2-pyridyl)-carboxamide] came in with an LD50 at 168 h of more than 800 mg/kg.
For `O=C(Nc1ccccn1)c1cnc2sc(-c3cccnc3)nn2c1=O` [FCE 22914, 2-(3-pyridyl)-5-oxo-5H-1,3,4-thiadiazolo[3,2-a]pyrimidine-6-N-(2-pyridyl)-carboxamide], the ED50 in data set [2] was determined as 45.9 mg/kg; in data set [3], 85.2 mg/kg. Besides, in data set [4], the “inhibition in phenylquinone test (analgesic activity)” value is reported as 30%. The LD50 at 168 h in data set [1] was more than 800 mg/kg.
